Measurements reported in patent US20230149510A1, “METHOD FOR ALLEVIATING ARTHRITIS USING EPIDERMAL GROWTH FACTOR” (Lovin BioMed Co., Ltd., priority 2021, published 2023).

How the values were obtained:
[1] = tested on: monosodium iodoacetate (MIA)-induced osteoarthritis (OA), right knee joint; assay: Diameter of right knee joint in MIA-induced OA rats; format: in vivo, Sprague Dawley rats; details: 30 μL intraarticular on day 3 and day 14, measured end of day 28 with caliper, FIG. 1
Experimental: A. Preparation of mixture containing EGF, CS, and HA EGF, CS, and HA were mixed in a weight ratio of 1:100:1000 in sterile water, so as to obtain a mixture containing EGF (20 μg/g), CS, and HA.
(§1) Male Sprague Dawley rats (6 weeks old, with a body weight of approximately 200 to 300 g) used in the following experiments were purchased from National Laboratory Animal Center, Taipei City, Taiwan. All the experimental mice were housed in an animal room under the following laboratory conditions: an alternating 12-hour light and 12-hour dark cycle, a temperature maintained at 21° C. to 24° C., and a relative humidity maintained at 45% to 70%. Furthermore, water and feed were provided ad libitum for all the experimental mice. All experimental procedures involving the experimental mice were in compliance with the legal provision of the Institutional Animal Care and Use Committee of National Chung Hsing University, Taiwan, and were carried out according to the Guide for the Care and Use of Laboratory Animals of National Institutes of Health (NIH).
The Sprague Dawley rats were divided into five groups, including one normal control group, one pathological control group, one comparative group, and two experimental groups (i.e., experimental groups 1 to 2) (n=5 rats in each group). […]
The data thus obtained were analyzed according to the method described in section 1 of “General Procedures”.

[2] = tested on: Chick type II collagen (CII)-induced rheumatoid arthritis (RA); assay: Evaluation of RA severity (visual arthritis scoring), collagen-induced RA; format: in vivo, DBA/1 mice; details: mice, 100 μL intraperitoneal once daily for 20 days, scored every 3 days, 21st to 42nd day, FIG. 6
Experimental: as §1, with “Female DBA/1 mice (8” for “Male Sprague Dawley rats (6”, “20” for “200 to 300”, “23°” for “24°”, “60%.” for “70%.”, “(NIH). […]” for “(NIH).”
At the end of the 21st day after the initial immunization, the pathological symptoms (i.e., erythema and edema in the sole joint, ankle, and knee joint) in the respective mouse was assessed according to the visual arthritis scoring system described in Brand D. D. et al. (2007), Nat. […] Thereafter, the abovementioned visual arthritis scoring system was performed every 3 days until the 42nd day after the initial immunization (i.e., each mouse was scored 8 times). The degree of RA severity was scored on a scale from 1 to 8. […]

| Substance | diameter of the right knee joint [1] | severity of RA (visual arthritis score, scale 1 to 8) [2] |
| --- | --- | --- |
| hyaluronic acid [HA, reference compound] | lower than that determined in the pathological control group | increased slowly |
| EGF: Epidermal growth factor (Cat. No. 02-108, Joycom Bio-chem) dissolved in PBS, 20 μg/g EGF; given to experimental group 1 (NSDSECPLSHDGYCLHDGVCMYIEALDKYACNCVVGYIGERCQYRDLKWWELR; UniProt P01133 971-1023, looked up) | lower than that determined in the pathological control group | increased slowly |
